Values after ≈ are worked out from the molar mass of the structure shown. Values belong to the compound of their own block, whether it stands above or below them.
What was measured:
[1] = system: Pseudomonas aeruginosa #44 (ATCC#27853); test: Mouse septicemia (systemic infection), PD50; type: in vivo; conditions: Pa #44 (ATCC27853), CD-1 mice, IP inoculum, 2 SC doses at 1 and 6 hrs, 7 day survival
Experimental: (§1) In vivo efficacy of (I) was evaluated against strains of MRSA, and ceftazidime-resistant Pa and Klebsiella pneumonia (Kpn) in mouse septicemia, thigh and lung infections. Septicemia: CD-1 mice received lethal bacterial inocula IP, followed by 2 doses of antibiotics SC at 1 and 6 hrs post-inoculation. Dose calculated to protect 50% of the mice (PD50) was derived based on probit analysis of percentage survival. Thigh and lung infections: Thighs or lungs of neutropenic mice were inoculated with MRSA or Pa. Two treatment doses were given SC at 1 and 6 hrs post-inoculation. Tissues were harvested at ˜24 hrs post-inoculation and bacterial burdens quantified.
(§2) II. Methods • A. Animals: Six week-old, specific pathogen free, female CD-1 mice purchased from Charles River Laboratories (Wilmington, Mass.) were used for all studies after acclimation in Cubist animal facility. All animal procedures were approved by the Cubist Institutional Animal Care and Use Committee. • B. Bacteria and In Vitro Susceptibility Testing: MRSA #712, Pseudomonas aeruginosa #2245 and #2545, and Klebsiella pneumoniae #573 are clinical isolates; Pseudomonas aeruginosa #44 is an ATCC strain (ATCC#27853). MIC was determined in MHB by standard CLSI microdilution. […] The survival of animals was recorded daily for 7 days. The antibiotic dose calculated to protect 50% of the mice (PD50) was derived based on probit analysis of percentage survival. • E. Mouse Thigh and Lung Infections: Mice were rendered neutropenic by two IP injections of cyclophosphamide 4 days (150 mg/kg) and 1 day (100 mg/kg) before bacterial inoculation. […] Tissue bacterial burdens were quantified by serial dilution and spiral plating of homogenates.
III. […] The dose that protected 50% of the mice (PD50) was calculated by probit analysis based on percentage of mice surviving for 7 days post-inoculation. • C. […]

[2] = system: Pa #2545; test: MIC in MHB by standard CLSI microdilution (Example 4); type: cell-based; conditions: Pseudomonas aeruginosa
Source text: (§3) II. Methods • A. Animals: Six week-old, specific pathogen free, female CD-1 mice purchased from Charles River Laboratories (Wilmington, Mass.) were used for all studies after acclimation in Cubist animal facility. All animal procedures were approved by the Cubist Institutional Animal Care and Use Committee. • B. Bacteria and In Vitro Susceptibility Testing: MRSA #712, Pseudomonas aeruginosa #2245 and #2545, and Klebsiella pneumoniae #573 are clinical isolates; Pseudomonas aeruginosa #44 is an ATCC strain (ATCC#27853). MIC was determined in MHB by standard CLSI microdilution. Comparator Antibiotics Used in Animal Studies: Vancomycin hydrochloride USP was purchased from Hospira (Lake Forest, Ill.); ceftazidime hydrate from Sigma; Primaxin (imipenem and cilastatin) from Merck; ceftaroline was synthesized at a CRO. • D. Mouse Septicemia: Mice received lethal inocula of bacteria in 6% hog gastric mucin intraperitoneally (IP), followed by two treatment doses of antibiotics via subcutaneous (SC) administration at 1 and 6 hrs post-inoculation. The survival of animals was recorded daily for 7 days. The antibiotic dose calculated to protect 50% of the mice (PD50) was derived based on probit analysis of percentage survival. • E. Mouse Thigh and Lung Infections: Mice were rendered neutropenic by two IP injections of cyclophosphamide 4 days (150 mg/kg) and 1 day (100 mg/kg) before bacterial inoculation. Thigh or lung infection was induced by an intramuscular injection of 0.2 mL or intranasal inoculation of 0.1 mL inoculum preparation from an overnight bacterial culture into left thigh or nares. Tissues from one group of mice receiving no treatment (No Rx) were harvested at 1 hr for determination of baseline of bacterial burden. The remaining mice received two treatment doses of vehicles or antibiotics given SC at 1 and 6 hrs post-inoculation. Tissues from the treated mice were harvested at ˜24 hrs post-inoculation. Tissue bacterial burdens were quantified by serial dilution and spiral plating of homogenates.

[3] = system: Kpn #573; test: as above; type: cell-based; conditions: Klebsiella pneumoniae
Source text: as §3

[4] = system: Pa #44 (ATCC27853); test: as above; type: cell-based; conditions: Pseudomonas aeruginosa
Source text: as §3

[5] = system: Pa2698; test: MIC, broth microdilution (Example 5), Table 3; type: cell-based; conditions: Pseudomonas aeruginosa
Experimental: (§4) II. […] MIC90 values were defined as the concentration required to inhibit growth of 90% of the strains tested. • C. SAR was performed using the following isolates: Sa399 (ATCC43300, MRSA), Sa1721 (NARSA NRS384, MRSA USA 300), Pa44 (ATCC27853), and 4 clinical isolates (Pa2241, Pa2086 (mucoid strain), Pa2694 and Pa2698). • D. The in vitro antibacterial activity of the compound of formula (I) was further evaluated in an expanded MRSA and Pa MIC panel (see Table 4 and FIG. 6).

[6] = system: Pa44 (ATCC27853); test: MIC, broth microdilution (Example 5), Table 3; type: cell-based; conditions: Pseudomonas aeruginosa
Experimental: as §4

[7] = system: Sa1721 (NARSA NRS384, MRSA USA 300); test: MIC, broth microdilution (Example 5), Table 3; type: cell-based; conditions: Staphylococcus aureus
Experimental: as §4

[8] = system: Pa2241; test: MIC, broth microdilution (Example 5), Table 3; type: cell-based; conditions: Pseudomonas aeruginosa
Experimental: as §4

[9] = system: Pa2086 (mucoid strain); test: MIC, broth microdilution (Example 5), Table 3; type: cell-based; conditions: Pseudomonas aeruginosa
Experimental: as §4

[10] = system: Sa399 (ATCC43300, MRSA); test: MIC, broth microdilution (Example 5), Table 3; type: cell-based; conditions: Staphylococcus aureus
Experimental: as §4

[11] = system: Pa2694; test: MIC, broth microdilution (Example 5), Table 3; type: cell-based; conditions: Pseudomonas aeruginosa
Experimental: as §4

[12] = system: Pseudomonas aeruginosa (n = 100); test: MIC90, expanded MIC panel (Table 4); type: cell-based; conditions: 100 Pa strains
Experimental: as §4

[13] = system: ceftazidime-resistant Pseudomonas aeruginosa #2545; type: in vivo; conditions: Pa #2545; CD-1 mice, IP inoculum, 2 SC doses at 1 and 6 hrs, 7 day survival
Experimental: as §1
as §2, with “All animal procedures were approved by the Cubist Institutional Animal Care and Use Committee. • B. Bacteria and In Vitro Susceptibility Testing: MRSA #712, Pseudomonas aeruginosa #2245 and #2545, and Klebsiella pneumoniae #573 are clinical isolates; Pseudomonas aeruginosa #44 is an ATCC strain (ATCC#27853).” left out

[14] = system: ceftazidime-susceptible Pseudomonas aeruginosa #2245; test: Lung infection in neutropenic mice; type: in vivo; conditions: Pa #2245 lung infection, 3-log CFU reduction vs vehicle at 24 h
Experimental: as §1, §3

[15] = system: ceftazidime-resistant Pseudomonas aeruginosa #2545; test: Lung infection in neutropenic mice; type: in vivo; conditions: Pa #2545 lung infection
Experimental: as §1, §3

[16] = system: ceftazidime-susceptible Pseudomonas aeruginosa #44 (ATCC#27853); test: Lung infection in neutropenic mice; type: in vivo; conditions: Pa #44 lung infection
Experimental: as §1, §3

[17] = system: Pa44 (WT Pa); test: MIC, broth microdilution (Example 3), Table 1; type: cell-based; conditions: Pseudomonas aeruginosa, CAMHB
Experimental: (§5) To prepare for MIC testing, individual colonies were isolated by streaking frozen glycerol material containing Staphylococcus or Pseudomonas spp. onto rich, non-selective, tryptic soy agar containing 5% sheep's blood (TSAB), and incubated at 37° C. for 18-24 hrs.
(§6) On the day of testing, primary cultures were started by scraping off 5-10 colonies from the TSAB plates. The material was suspended in ˜5 mL of cation adjusted Mueller Hinton Broth (CAMHB) in 14 mL culture tubes and incubated at 37° C. with aeration (200 rpm) for ˜2 hrs until the OD600 was ≧0.1.
(§7) Inoculum cultures were prepared by standardizing the primary cultures to OD600=0.1 and then adding 20 μL of the adjusted primary culture per 1 mL CAMHB for Pseudomonas and CAMHB plus 4% NaCl for MRSA so that the final inoculum density was ˜10^5 colony forming units per milliliter. Diluted inoculum cultures were used to inoculate 50 μL per well in 96 well broth microdilution assay plates. 50 μL of CAMHB that contained compound concentrations ranging from 64-0.06 μg/mL in two-fold dilutions was also added to the broth microdilution assay plates for a final volume 100 μL per well, therefore final culture OD600 was approximately 0.001 and the final NaCl concentration for the MRSA strain was 2%.
(§8) Plates were incubated for 18-20 hours at 37° C. with aeration (200 rpm). Following incubation, growth was confirmed visually placing plates over a viewing apparatus (stand with a mirror underneath) and then OD600 was measured using a SpectraMax 340PC384 plate reader (Molecular Devices, Sunnyvale, Calif.). Growth was defined as turbidity that could be detected with the naked eye or achieving minimum OD600 of 0.1. MIC values were defined as the lowest concentration producing no visible turbidity.

[18] = system: Sa399 (MRSA); test: MIC, broth microdilution (Example 3), Table 1; type: cell-based; conditions: Staphylococcus aureus, CAMHB, final 2% NaCl
Experimental: as §5, §6, §7, §8

[19] = system: Klebsiella pneumoniae #573; test: Mouse septicemia (systemic infection), PD50; type: in vivo; conditions: Kpn #573; CD-1 mice, IP inoculum, 2 SC doses at 1 and 6 hrs, 7 day survival
Experimental: as §1
as §2, with “All animal procedures were approved by the Cubist Institutional Animal Care and Use Committee. • B. Bacteria and In Vitro Susceptibility Testing: MRSA #712, Pseudomonas aeruginosa #2245 and #2545, and Klebsiella pneumoniae #573 are clinical isolates; Pseudomonas aeruginosa #44 is an ATCC strain (ATCC#27853).” left out

[20] = system: MRSA #712; test: MIC in MHB by standard CLSI microdilution (Example 4); type: cell-based; conditions: Staphylococcus aureus; MRSA #712; read-out: MIC
Source text: as §3

[21] = system: MRSA (n = 21); test: MIC90, expanded MIC panel (Table 4); type: cell-based; conditions: Staphylococcus aureus; 21 MRSA strains; read-out: MIC90 MRSA (n = 21)
Experimental: as §4

Compound: CC(C)(O/N=C(\C(=O)N[C@@H]1C(=O)N2C(C(=O)[O-])=C(C[n+]3ccccc3)CS[C@H]12)c1csc(N)n1)C(=O)O [Ceftazidime]
- Septicemia PD50 (± SE) [1]: 33.9 ± 7.4 mg/kg
- Septicemia PD50 (± SE) ([1]; listed as ceftazidime): 33.9 ± 7.4 mg/kg
- MIC [2]: 32 to 64 mg/L (≈ 58.5 to 117 µM)
- MIC [3]: 256 mg/L (≈ 468 µM)
- MIC [4]: 1 mg/L (≈ 1.83 µM)
- MIC [5]: 8 mg/L (≈ 14.6 µM)
- MIC [6]: 2 mg/L (≈ 3.66 µM)
- MIC [7]: > 64 mg/L
- MIC [8]: 2 mg/L (≈ 3.66 µM)
- MIC [9]: 2 mg/L (≈ 3.66 µM)
- MIC [10]: 64 mg/L (≈ 117 µM)
- MIC [11]: 8 mg/L (≈ 14.6 µM)
- MIC90 [12]: 8 mg/L (≈ 14.6 µM)
- Septicemia PD50 (± SE) [13]: >140.5 mg/kg
- ED−3 log [14]: 27.2 mg/kg
- Lung (L) ED−2log ([15]; neutropenic mice, 2 SC doses at 1 and 6 hrs, 24 h, vs vehicle): >144.5 (L) mg/kg
- impact on the bacterial burden in the lung ([15]; up to 144.5 mg/kg): minimal impact
- Lung (L) ED−2log ([16]; 2 SC doses at 1 and 6 hrs, 24 h, vs vehicle): 25.6 (L) mg/kg
- ED−3 log ([16]; 3-log CFU reduction vs vehicle at 24 h): 50.4 mg/kg
- MIC [17]: ≤ 4 mg/L
- MIC [18]: > 16 mg/L
- Septicemia PD50 (± SE) [19]: 50.3 ± 8.4 mg/kg

- MIC [20]: 1 mg/L (≈ 1.65 µM)
- MIC [5]: > 64 mg/L
- MIC [6]: 8 mg/L (≈ 13.2 µM)
- MIC [7]: 2 mg/L (≈ 3.31 µM)
- MIC [8]: 16 mg/L (≈ 26.5 µM)
- MIC [9]: 16 mg/L (≈ 26.5 µM)
- MIC [10]: 0.5 mg/L (≈ 0.827 µM)
- MIC [11]: > 64 mg/L
- MIC90 [21]: 1 mg/L (≈ 1.65 µM)
Compound: CCO/N=C(\C(=O)N[C@@H]1C(=O)N2C(C(=O)[O-])=C(Sc3nc(-c4cc[n+](C)cc4)cs3)CS[C@H]12)c1nsc(N)n1 [Ceftaroline, ceftaroline]
